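All cell lines were grown in 96-well plates and treated with compound for 48 hours. The concentration for full growth arrest is given as TGI.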
Experiments:
Assay in all cases: NCI-60 cell line screen, 48 h
UACC-257 melanoma = tested on: UACC-257 melanoma
SN12C renal = tested on: SN12C renal
TK-10 renal = tested on: TK-10 renal
SW-620 colon = tested on: SW-620 colon
CCRF-CEM leukemia = tested on: CCRF-CEM leukemia
SK-MEL-5 melanoma = tested on: SK-MEL-5 melanoma
IGROV1 ovarian = tested on: IGROV1 ovarian
NCI-H460 lung = tested on: NCI-H460 lung
OVCAR-4 ovarian = tested on: OVCAR-4 ovarian
OVCAR-5 ovarian = tested on: OVCAR-5 ovarian
MDA-MB-231 breast = tested on: MDA-MB-231 breast
NCI-H226 lung = tested on: NCI-H226 lung
LOX IMVI melanoma = tested on: LOX IMVI melanoma
RXF 393 renal = tested on: RXF 393 renal
SK-OV-3 ovarian = tested on: SK-OV-3 ovarian
M14 melanoma = tested on: M14 melanoma
HCT-15 colon = tested on: HCT-15 colon
MALME-3M melanoma = tested on: MALME-3M melanoma
K-562 leukemia = tested on: K-562 leukemia
HOP-92 NSCLC = tested on: HOP-92 NSCLC

SMILES	TGI (UACC-257 melanoma) [µM]	TGI (SN12C renal) [µM]	TGI (TK-10 renal) [µM]	TGI (SW-620 colon) [µM]	TGI (CCRF-CEM leukemia) [µM]	TGI (SK-MEL-5 melanoma) [µM]	TGI (IGROV1 ovarian) [µM]	TGI (NCI-H460 lung) [µM]	TGI (OVCAR-4 ovarian) [µM]	TGI (OVCAR-5 ovarian) [µM]	TGI (MDA-MB-231 breast) [µM]	TGI (NCI-H226 lung) [µM]	TGI (LOX IMVI melanoma) [µM]	TGI (RXF 393 renal) [µM]	TGI (SK-OV-3 ovarian) [µM]	TGI (M14 melanoma) [µM]	TGI (HCT-15 colon) [µM]	TGI (MALME-3M melanoma) [µM]	TGI (K-562 leukemia) [µM]	TGI (HOP-92 NSCLC) [µM]
Cc1ccc(/C(Cl)=C/C=C(C#N)C#N)cc1	6.31	17.4	13.2	3.71	> 100	4.01	16.2	> 100	8.74	7.48	6.33	17.2	3.82	7.66	26.1	6.37	4.79	16.1	19.4	
O=C1N[C@H]2c3c(Cl)sc(Cl)c3[C@@H](O)[C@H]2O1	> 100	> 100	> 100	> 100	> 100	> 100	> 100	> 100		> 100	> 100			> 100	> 100	> 100	> 100	> 100	> 100	
CCOCc1c(C)cc(C)c(C2C(C(=O)c3ccccc3)N3c4ccccc4C=CC3C2(C#N)C(=O)OCC)c1C (stereo not given)	> 100	> 100		> 100	> 100	33.2	46.5	> 100	> 100	> 100			> 100	> 100		> 100	> 100		> 100	
O=c1c2ccccc2[nH]c2c(Cl)cc(Cl)c(NC3CCCCC3)c12	69.5	55.3	61.3	49		> 100	96.2		> 100	53.9	74.3	44.4	> 100		> 100	47.7	> 100		> 100	
O=C(Cn1c2c(c3ccccc31)CCCC2)N1CCCC1	> 100	> 100	> 100	> 100		> 100	> 100	> 100	73.3	> 100			> 100		> 100	> 100	> 100	> 100		> 100
COc1ccccc1NC(=S)Nc1cc(C)cc(C)n1	> 100	> 100	> 100	> 100	> 100	> 100	> 100	> 100	> 100	> 100	> 100	> 100	> 100	> 100	> 100	> 100	> 100	> 100	> 100	
O=c1[nH]c(=O)n(CCOc2ccccc2)cc1Nc1ccccc1	> 100	> 100		> 100	> 100	> 100	> 100	> 100		> 100			> 100	> 100		> 100	> 100	> 100	> 100	> 100
O=C1NC(=O)C(CCC(=O)c2ccc3ccccc3c2)C(=O)N1	> 100	> 100	> 100	> 100	> 100	> 100	> 100	> 100	> 100	> 100		> 100	> 100	> 100	> 100	> 100	> 100	> 100	> 100	> 100
COc1ccc(/C=C2\CCC(C)C3C2=NN(c2ccccc2)C3c2ccc(OC)c(OC)c2)cc1OC (stereo not given)	9.74	17.6	6.93	> 100	10.2	9.68	8.23			24	12.5	12.9	8.63	16.3	20.2	43.3	9.92	16.7	18.5	
CCN(CC)CCn1nc(N)c2nc3ccccc3nc21	> 100	> 100	> 100	> 100	> 100		> 100	> 100	> 100	> 100		> 100	> 100	> 100	> 100	> 100	> 100	> 100	> 100	> 100
O=c1oc2ccccc2cc1-c1csc(Nc2ccc(F)cc2)n1	> 52	10.1	8.21	15.3	16.3	23.9	21.9	22.3	> 36	20.9	26	19.7	14.9	28.2	15.6	13.6	11.2		20.6	24.4
O=P1(O)c2ccccc2CCc2ccccc21	> 100	> 100	> 100	> 100	> 100	> 100	> 100				> 100	> 100	> 100	> 100	> 100	> 100	> 100		> 100	> 100
C=C1[C@H](OC(C)=O)[C@H]2[C@@H](OC(C)=O)[C@@H](C)C[C@]2(C)C(=O)[C@H](C)/C=C/C(C)(C)C(=O)[C@H](OCC(C)C)[C@H]1OC(C)=O	> 25	> 25	> 25	> 25	> 25	> 25	> 25	> 25	> 25	> 25	> 25	> 25	> 25	> 25	> 25	> 25	> 25			> 25
COC(=O)c1cc2c(cc1CC1Cc3cc4c(cc3C1=O)CCC4)CCC2 (stereo not given)	> 100	> 100	> 100	> 100	> 100	42.5	> 100	> 100	> 100	> 100	> 100	> 100	> 100		> 100	> 100	> 100	> 100	> 100	
COC(=O)/C=C(/C=C1/C(C#N)=C(N)N(c2ccc(Cl)cc2)C1(C)/C(=C/C(=O)OC)C(=O)OC)C(=O)OC (stereo not given)	> 100	> 100	> 100	> 100	> 100		> 100	> 100	> 100	> 100	> 100		84.6		> 100	> 100	> 100	> 100	50.5	88.6
O=C(NC12CC3CC(CC(F)(C3)C1)C2)c1ccccc1	> 100		> 100	> 100	> 100		> 100	> 100		> 100			> 100	> 100	> 100	> 100		> 100	> 100	> 100
NC(=S)N1N=C2c3ccccc3CC[C@@H]2[C@@H]1c1ccccc1	56.3	17.3	> 68	> 59.3	62.3	27.1	> 80.3	> 42.2	> 100	99.9		45.6	20.1	41.5	33.9	31.1	24.6	66.7	> 49.1	47.2
CCC(C)(C)C1CCC2c3c([nH]c4ccccc34)C3C(=O)N(c4ccc(OC)cc4)C(=O)C3C2C1 (stereo not given)	> 100	6.67	56.2	> 100			90.8	> 100	> 100	45.6	32.3	37.3	23.7	> 100	77.6	> 100	> 100	63	> 100	
O=C(O)CCCn1nnc2c(=O)[nH][nH]c(=O)c21	> 100	> 100	> 100		> 100	> 100		> 100	> 100	> 100	> 100		> 100			> 100	> 100	> 100	> 100	> 100
OC1(c2ccccc2)C2CCN(CC2)C1CN1CCOCC1 (stereo not given)	> 100	> 100	> 100	> 100	> 100	> 100	> 100	> 100	> 100	> 100	> 100	> 100	> 100	> 100	> 100	> 100	> 100	> 100	> 100	
O=C1N=C(SC2OC(CO)C(O)C(O)C2O)S/C1=C\c1ccccc1 (stereo not given)	> 100	> 100	> 100	> 100	> 100	> 100	> 100	> 100		> 100	> 100	> 100	> 100	> 100	> 100	> 100	> 100	> 100	> 100	
Cc1cccc(C(C)C)c1NC(=O)/C(Cc1c([N+](=O)[O-])cccc1[N+](=O)[O-])=N/NC(=O)CC#N			> 100	> 100	> 100	> 100	> 100	> 100		> 100		> 100	> 100	> 100	> 100	> 100	> 100	> 100	> 100	> 100
Cc1ccc(S(=O)(=O)c2ccsc2NC(=O)C(F)(F)F)cc1	> 100	66.8	> 100	> 100		44.4	> 100	> 100	> 100	> 100	56.2	> 100	> 100		> 100	> 100	> 100	> 100		> 100
[Cl-].[Rh+3].c1cnc2c(c1)ccc1cccnc12.c1cnc2c(c1)ccc1cccnc12.c1cnc2c(c1)ccc1cccnc12	92.5	> 100		> 100	> 100	> 100	> 100	> 100	> 100	> 100			> 100		> 100	29	> 100	> 100	> 100	> 100
CC1OC(OC2C(OC(=O)[C@]34CCC(C)(C)CC3C3=CCC5[C@@]6(C)C[C@H](O)[C@H](OC7OC(CO)C(O)C(O)C7N)[C@@](C)(C(=O)O)C6CC[C@@]5(C)C3(C)CC4)OCC(O)C2O)C(O)C(O)C1OC1OCC(O)C(O)C1O (stereo not given in full)	> 100	> 100	> 100	> 100	> 100	> 100	> 100	> 100		> 100		> 100	> 100	> 100	> 100		> 100	> 100	> 100	> 100
O=C1c2ccccc2C(=O)c2c1cc(S(=O)(=O)O)c(O)c2O	> 100	> 100	> 100	> 100	> 100		> 100	> 100	> 100	> 100		> 100	> 100	> 100	> 100	> 100	> 100		> 100	> 100
